Experimental data taken from patent publication US20230143042A1, “SYSTEM AND METHOD FOR AEROSOL PARTICLE PRODUCTION OF SUBMICRON AND NANO STRUCTURED MATERIALS” (The Trustees of Princeton University, priority 2020, published 2023).

Experiment: Size of dried aerosol particles by scanning electron microscopy
Assay type: physicochemical
Conditions: atomized at 1.5 bar gauge (TIPT-based sol 2.5 bar), dried in room air ~23° C., ~30% RH
Protocol: Various concentrations (e.g., 0.5-15% wt.) of solutions of sodium chloride in deionized water was prepared by mixing the crystals of table salt (NaCl) with deionized water at 45° C. for 15 min. The procedure for preparing precursor of silica (SiO2) was: tetraethoxysilane (TEOS), ethanol, deionized water, and HCl (mole ratio 1:3.8:1:5×10−5) were mixed at 60° C. for 120 min and then aged at room temperature under continuous stirring up to 43 hours. For synthesis of titania (TiO2) particles, titanium (IV) tetraisopropoxide (TIPT) and titanium (IV) butoxide (TBT)-based precursors were utilized. […]
For the salt solutions, the temperature and relative humidity of room air used for drying of droplets were ˜23° C. and ˜30% respectively. […] Provided the measured air velocity used to dry the droplets is ˜0.1-0.5 m/s (laminar flow, Re=300-1600), in terms of the drying kinetics of a single droplet, the generated droplets are expected to turn into dry particles after traveling 0.04-400 μm in room air, whereas the overall particle residence time in the setup is ˜1-5 s, which is much longer than the needed drying time. […]

[Cl-].[Na+] [NaCl, sodium chloride]
mean particle size: 227 nm
